These results are taken from ChEMBL document CHEMBL3779895, “Antimycobacterial activity of rhodamine 3,4-HPO iron chelators against Mycobacterium avium: analysis of the contribution of functional groups and of chelator's combination with ethambutol” (Medchemcomm, 2015).

Each structure is given as a SMILES string. Activity calls are given as the source filed them. The calls are words filed in the database; no cut-off is given here.

Assay [1] relates to Mycobacterium avium. Put plainly: Antimycobacterial activity against Mycobacterium avium 2447 Smt infected in BALB/c mice BMDM assessed as bacterial growth inhibition at 10 uM after 5 days. Format: functional, organism-based.
The subject of assay [2] is Mycobacterium avium. The assay can be described thus: Antimycobacterial activity against Mycobacterium avium 2447 Smt infected in BALB/c mice BMDM assessed as bacterial growth inhibition upto 20 uM after 5 days. Format: functional, organism-based.

As for `Cc1cc(O)c(O)c(CNC(=O)CCC(CCC(=O)NCc2c(O)c(O)cc(C)[n+]2C)(CCC(=O)NCc2c(O)c(O)cc(C)[n+]2C)NC(=O)CCNC(=S)Nc2ccc(C(=O)O)c(-c3c4ccc(=[N+](C)C)cc-4oc4cc(N(C)C)ccc34)c2)[n+]1C`, the inhibition result in the assay with Mycobacterium avium [1] and with Mycobacterium avium [2] was “Active” in each case.
